Test results reported in patent US20250084039A1, “4-SUBSTITUTED AMINOISOQUINOLINE DERIVATIVES” (Purdue Research Foundation, priority 2016, published 2025).

What was measured:
MV4-11 [1] = assay: Activity against AML cell line MV4-11 (CellTiter-Blue, 72 h); format: cell-based; settings: Homo sapiens, MV4-11, 72 h; read-out: IC50 against MV4-11/uM
Method: Cells were added to 96 well plates at 2000 cells per well for adherent lines and 4000 cells per well for suspension lines and kept in an incubator overnight. The following day the plates were treated with compounds to give rise to the final concentrations of; 100 μM, 10 μM, 5 μM 1 μM, 500 nM, 100 nM, 10 nM, […]. The plates were then stored in the incubator for 72 hours. On the third day the cells were assayed with 20 μL of CellTiter—Blue Cell Viability Assay per well and were incubated for 4 hours. After 4 hours' fluorescence intensity was taken on a plate reader: Excitation: 560/10 Emission: 590/10. IC50 analysis was performed on GraphPad Prism 7.

STAT5 phosphorylation = assay: Western blot in MV4-11; format: cell-based, human
Method: Effect of HSW630-1 on protein expression was tested in the MV4-11 leukemia cell line. Total protein extracts were prepared using RIPA buffer (SIGMA) supplemented with Complete Mini™ protease inhibitor and PHOStop™ phosphatase inhibitors (Roche). Equal amounts of proteins (up to 25 μg) were separated on 4-12% NuPAGE gels in 1×MOPS or 1×MES buffer (Invitrogen) and transferred onto PVDF membranes (Millipore). The membrane was blocked with 5% dry milk in 1×TBS/0.1% Tween 20 (TBST) for at least 1 h at room temperature and incubated with human specific primary antibodies: FLT3, Phospho-FLT3, c-Myc (Cell Signaling Technologies), KRAS (Santa Cruz), or mouse anti-β-actin (SIGMA) overnight at 4° C. The membrane was washed 3 times in TBST and incubated with a horseradish peroxidase-conjugated secondary anti-rabbit or anti-mouse antibody (Cell Signaling Technologies) for 1 h at room temperature. Blots were again washed and the signal was detected with SuperSignal West Femto Chemiluminescent Substrate (Pierce) and exposed to HyBlot CL® autoradiography film (Denville).
To determine if the phosphorylation of FLT3, SRC kinase and downstream effectors or kinases (such as STAT3 [44], STAT5 [45] and p-38 [46]) could be affected by the compounds. […] The level of SRC kinase increased over time (amount at the 48 h time point is greater than at the 6 and 24 h time points). Unfortunately the bands for the phosphorylated SRC kinase are blurred despite repeated attempts to get clearer bands. […] From the above Western analyses, it is confirmed that the proliferation inhibition of MV4-11 is due to the inhibition of FLT3 signaling axis.

HL60 = assay: Anti-proliferative effects in leukemia panel; format: cell-based; settings: Homo sapiens, HL-60
THP-1 = assay: Anti-proliferative effects in leukemia panel; format: cell-based; settings: Homo sapiens
Method: (§1) Molm-14 cells were the kind gift of Dr. Mark Levis from Johns Hopkins University. THP-1, MV4-11, K-562 and MRC-5A cells were purchased from ATCC (ATCC, Manassas, VA). All cell lines were grown in 37° C. with 5% CO2 atmosphere with RPMI 1640 (Life technologies, Carlsbad. CA) supplemented with heat-inactivated 10% (V/V) fetal bovine serum. Cell lines were grown and maintained according to ATCC recommendations.
(§2) Cell lines were seeded into 96-well plates the afternoon prior to treatment. Approximately 18 hours later, compounds were semi-serially diluted in dimethyl sulfoxide (DMSO) and then growth medium, and added to cells. Plates were incubated for 72 hours prior to addition of Alamar Blue (Life Technologies. Carlsbad, CA). Plates were read after 4 additional hours of incubation at 37° C. using a Bio-Tek Synergy HT plate reader (Bio-Tek, Winooski. VT). Data was analyzed and graphed using GraphPad Prism Software (Graphpad. La Jolla, CA).

MOLM14 = assay: Anti-proliferative effects in leukemia panel; format: cell-based; settings: for IC50: Homo sapiens, MOLM-14
Method: as §1, §2

K-562 = assay: Anti-proliferative effects in leukemia panel; format: cell-based; settings: Homo sapiens, K562
Method: as §1, §2

FLT3 phosphorylation = assay: Western blot in MV4-11; format: cell-based, human
Method: Total protein extracts were prepared using RIPA buffer (SIGMA) supplemented with Complete Mini™ protease inhibitor and PHOStop™ phosphatase inhibitors (Roche). […] The membrane was blocked with 5% dry milk in 1×TBS/0.1% Tween 20 (TBST) for at least 1 h at room temperature and incubated with human specific primary antibodies: FLT3, Phospho-FLT3, c-Myc (Cell Signaling Technologies), KRAS (Santa Cruz), or mouse anti-β-actin (SIGMA) overnight at 4° C. The membrane was washed 3 times in TBST and incubated with a horseradish peroxidase-conjugated secondary anti-rabbit or anti-mouse antibody (Cell Signaling Technologies) for 1 h at room temperature. Blots were again washed and the signal was detected with SuperSignal West Femto Chemiluminescent Substrate (Pierce) and exposed to HyBlot CL® autoradiography film (Denville).

TRKC = TRKC (Homo sapiens (Human), UniProt Q16288); assay: Reaction Biology HotSpot kinase assay; format: biochemical; settings: 500 nM compound, 100 μM radiolabeled ATP
Method: (§3) The Reaction Biology Corporation (www.reactionbiology.com, Malvern, PA) HotSpot assay platform was used to measure kinase/inhibitor interactions exactly as previously described. Kinase and substrate were mixed in a buffer containing 20 mM HEPES pH 7.5, 10 mM MgCl2, 1 mM EGTA, 0.02% Brij35, 0.02 mg/mL BSA, 0.1 mM Na3VO4, 2 mM DTT and 1% DMSO. Single-dose of compounds (500 nM) were then added to each reaction mixture. After 20-minute incubation. ATP (Sigma) and [γ-^33P] ATP (Perkin Elmer) were added at a final total concentration of 100 μM for addition 2 hours at room temperature, followed by spotting onto P81 ion exchange cellulose chromatography paper (Whatman, Inc.). […] Percent remaining kinase activity of a vehicle (DMSO) containing kinase reaction was calculated for each kinase/inhibitor pair using Prism 5 (GraphPad).
as §3, with “1” for “DTT”, “incubation,” for “incubation.”

c-kit = c-kit (Homo sapiens (Human), UniProt P10721); assay: Reaction Biology HotSpot kinase assay; format: biochemical; settings: 500 nM compound, 100 μM radiolabeled ATP
Method: as §3
as §3, with “1” for “DTT”, “incubation,” for “incubation.”

MV4-11 [2] = assay: Anti-proliferative effects in leukemia panel; format: cell-based; settings: for IC50: Homo sapiens, MV4-11, read-out: Anti-proliferative effects in leukemia panel (μM) MV4-11
Method: Molm-14 cells were the kind gift of Dr. Mark Levis from Johns Hopkins University. […] Cell lines were grown and maintained according to ATCC recommendations.
as §2

FLT3 ITD = FLT3 ITD (Homo sapiens, UniProt P36888); assay: DiscoverX Kd Elect binding
Excerpt: Although the current drugs on the market or in clinical trials are relatively successful in killing the AML leukemia cells, they currently are unable to deal with secondary mutations that occur after TKI treatment, such as FLT3 ([…]).

FLT3 (ITD, F691L) = FLT3 (ITD, F691L) (Homo sapiens, UniProt P36888, F691L/ITD); assay: DiscoverX Kd Elect binding; settings: read-out: Kd FLT3 (ITD, F691L)
MV4-11 [3] = assay: IC50 determination (proliferation assay, CellTiter-Blue); format: cell-based
Method: Cell lines were seeded into 96-well plates the afternoon prior to treatment. Approximately 18 hours later, compounds were diluted in dimethyl sulfoxide (DMSO) and added to cells. Plates were incubated for 72 hours and cells viability determined with CellTiter-Blue Cell Viability Assay (Promega, Madison, WI). Plates were read after 4 additional hours of incubation at 37° C. using plate reader (Bio-Tek, Winooski. VT). Data was analyzed and graphed using GraphPad Prism Software (Graphpad. La Jolla, CA). […]

NCI H1703 (NSCLC) = assay: Activity against lung cancer cell line; format: cell-based
MV4-11 [4] = assay: In vivo efficacy, NSG mice injected with MV4-11; settings: 25 mg/kg, three times per week, NSG mice with MV4-11
Method: Method: Six week old female NSG mice were injected intravenously with 1×10^6 logarithmically growing MV4-11 cells expressing luciferase (MV4-11). Luciferase expressing leukemia cells were imaged using the IVIS Xenogen system (Perkin Elmer, Waltham MA). On day of imaging, mice are injected IP with 150 mg/kg luciferin (Perkin Elmer, Waltham, MA), anaesthetized and then placed in imaging chamber. Maximal luminescence is recorded and then averaged among each treatment group. Ten days post cell injection, mice were imaged and then sorted into groups so that leukemic burden was similar and dosing started. Mice were dosed either with vehicle (10% DMSO/10% Tween 20/80% saline) or 25 mg/kg of compounds three times per week for the duration of the experiment. Mice were weighed and observed five days per week and imaged once per week.

Chain of c-kit (P10721 26-976): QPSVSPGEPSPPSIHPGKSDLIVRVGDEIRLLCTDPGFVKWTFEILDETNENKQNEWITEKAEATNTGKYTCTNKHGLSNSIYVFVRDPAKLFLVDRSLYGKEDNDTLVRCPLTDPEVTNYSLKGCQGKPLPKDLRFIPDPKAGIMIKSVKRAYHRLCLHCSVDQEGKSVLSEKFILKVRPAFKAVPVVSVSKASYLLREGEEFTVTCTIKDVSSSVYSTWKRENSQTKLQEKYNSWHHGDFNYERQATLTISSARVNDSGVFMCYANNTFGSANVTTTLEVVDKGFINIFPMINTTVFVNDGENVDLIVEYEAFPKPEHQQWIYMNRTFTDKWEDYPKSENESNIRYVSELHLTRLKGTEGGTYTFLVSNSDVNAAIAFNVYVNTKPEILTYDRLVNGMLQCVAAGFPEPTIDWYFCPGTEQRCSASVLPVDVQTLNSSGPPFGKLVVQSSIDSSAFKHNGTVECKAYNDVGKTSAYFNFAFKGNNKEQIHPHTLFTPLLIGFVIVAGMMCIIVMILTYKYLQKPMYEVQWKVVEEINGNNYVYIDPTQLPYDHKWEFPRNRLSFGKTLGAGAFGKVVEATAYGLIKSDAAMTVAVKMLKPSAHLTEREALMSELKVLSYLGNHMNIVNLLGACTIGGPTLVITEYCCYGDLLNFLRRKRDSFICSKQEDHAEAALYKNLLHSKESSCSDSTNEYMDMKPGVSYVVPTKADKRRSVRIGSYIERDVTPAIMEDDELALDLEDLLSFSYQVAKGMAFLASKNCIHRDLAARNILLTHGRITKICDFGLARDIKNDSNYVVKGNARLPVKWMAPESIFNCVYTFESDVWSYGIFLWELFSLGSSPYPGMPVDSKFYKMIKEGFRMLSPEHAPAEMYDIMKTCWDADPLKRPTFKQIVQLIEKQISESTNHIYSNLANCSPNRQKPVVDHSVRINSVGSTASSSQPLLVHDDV
Chain of FLT3 ITD (P36888 whole entry, looked up, change not shown): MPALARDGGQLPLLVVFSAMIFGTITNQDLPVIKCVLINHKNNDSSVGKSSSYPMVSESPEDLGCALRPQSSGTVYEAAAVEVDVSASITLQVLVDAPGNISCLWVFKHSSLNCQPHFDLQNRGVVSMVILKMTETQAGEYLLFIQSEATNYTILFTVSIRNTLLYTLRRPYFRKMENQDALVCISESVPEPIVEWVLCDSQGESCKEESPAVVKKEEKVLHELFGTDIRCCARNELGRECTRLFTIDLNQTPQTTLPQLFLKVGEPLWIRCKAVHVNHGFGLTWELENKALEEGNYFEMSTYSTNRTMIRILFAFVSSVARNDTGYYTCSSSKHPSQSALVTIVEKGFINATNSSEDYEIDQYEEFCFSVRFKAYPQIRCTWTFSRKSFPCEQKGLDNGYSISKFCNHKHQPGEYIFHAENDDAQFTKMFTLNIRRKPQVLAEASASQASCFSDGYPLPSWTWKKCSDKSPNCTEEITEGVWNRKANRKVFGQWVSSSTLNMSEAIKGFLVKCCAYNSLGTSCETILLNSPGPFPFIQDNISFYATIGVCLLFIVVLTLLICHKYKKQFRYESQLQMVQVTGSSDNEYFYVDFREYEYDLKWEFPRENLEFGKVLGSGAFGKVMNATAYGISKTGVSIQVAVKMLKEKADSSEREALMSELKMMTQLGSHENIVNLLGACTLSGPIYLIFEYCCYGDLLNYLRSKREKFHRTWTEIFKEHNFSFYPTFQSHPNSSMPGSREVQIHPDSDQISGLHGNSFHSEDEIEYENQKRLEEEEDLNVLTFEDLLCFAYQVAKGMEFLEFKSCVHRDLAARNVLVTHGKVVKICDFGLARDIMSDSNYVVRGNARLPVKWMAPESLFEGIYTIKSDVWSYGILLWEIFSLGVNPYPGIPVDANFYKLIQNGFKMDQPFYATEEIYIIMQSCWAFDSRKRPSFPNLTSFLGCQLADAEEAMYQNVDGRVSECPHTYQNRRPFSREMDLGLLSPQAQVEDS
Chain of FLT3 (ITD, F691L) (P36888 whole entry, looked up, stated change not applied): as the sequence (P36888 whole entry, looked up, change not shown) above
Chain of TRKC (Q16288 32-839): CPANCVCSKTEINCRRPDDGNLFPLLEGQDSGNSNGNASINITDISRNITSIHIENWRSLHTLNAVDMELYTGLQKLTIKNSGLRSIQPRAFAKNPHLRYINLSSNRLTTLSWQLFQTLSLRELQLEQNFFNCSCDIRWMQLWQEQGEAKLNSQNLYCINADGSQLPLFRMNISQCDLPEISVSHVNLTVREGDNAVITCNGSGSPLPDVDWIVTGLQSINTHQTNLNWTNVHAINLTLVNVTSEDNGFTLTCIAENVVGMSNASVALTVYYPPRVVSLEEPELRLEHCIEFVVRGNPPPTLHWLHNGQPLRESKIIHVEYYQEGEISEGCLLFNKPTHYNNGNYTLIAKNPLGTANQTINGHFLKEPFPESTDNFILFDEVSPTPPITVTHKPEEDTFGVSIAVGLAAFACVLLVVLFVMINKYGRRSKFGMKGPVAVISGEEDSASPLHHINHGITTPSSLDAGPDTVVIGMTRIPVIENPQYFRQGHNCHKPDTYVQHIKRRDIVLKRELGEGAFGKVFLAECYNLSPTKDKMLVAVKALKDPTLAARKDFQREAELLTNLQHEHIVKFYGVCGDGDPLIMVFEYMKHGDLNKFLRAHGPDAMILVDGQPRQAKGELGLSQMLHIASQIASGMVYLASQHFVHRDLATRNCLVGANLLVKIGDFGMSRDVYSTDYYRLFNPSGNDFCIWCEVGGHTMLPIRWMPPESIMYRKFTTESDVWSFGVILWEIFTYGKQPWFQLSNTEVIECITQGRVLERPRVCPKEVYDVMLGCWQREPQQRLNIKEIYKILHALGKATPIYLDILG

Nc1ncc2ccc(Cl)cc2c1C#Cc1ccc(C2=NCCN2)cc1 [HSM1651, 6-chloro-4-((4-(4,5-dihydro-1H-imidazol-2-yl)phenyl)ethynyl)isoquinolin-3-amine]
IC50 (MV4-11 [1]): 0.008 µM | STAT5 phosphorylation (Western) (STAT5 phosphorylation): reduced | IC50 (HL60): 3.05 µM | IC50 (THP-1): 1.85 µM | anti-proliferative activity in words, MOLM-14 (MOLM14): good inhibitor | IC50 (MOLM14): 0.11 µM | IC50 (K-562): 1.39 µM | FLT3 phosphorylation (Western) (FLT3 phosphorylation): reduced | inhibition at 0.5 µM (TRKC): 64% | inhibition at 0.5 µM (c-kit): 83% | anti-proliferative activity in words, MV4-11 / AML cell lines (MV4-11 [2]): good inhibitor | IC50 (MV4-11 [2]): 0.05 ± 0.01 µM

N=C(N)c1ccc(/N=N/c2c(N)ncc3ccc(Br)cc23)cc1 [HSW630-1]
IC50 (THP-1): 1.2 µM | IC50 (MOLM14): 0.15 ± 0.01 µM | IC50 (K-562): 3 µM | inhibition at 0.5 µM (c-kit): 68% | IC50 (MV4-11 [2]): 0.15 ± 0.01 µM

Cc1ncc(C(=O)Nc2ccc(CN3CCN(C)CC3)c(C(F)(F)F)c2)cc1C#Cc1c(N)ncc2ccc(F)cc12 [HSN431]
Kd (FLT3 ITD): 4.8 nM | Kd (FLT3 (ITD, F691L)): 57 nM | IC50 (MV4-11 [3]): < 1 nM | IC50 (NCI H1703 (NSCLC)): 247 nM | in-vivo efficacy (survival) (MV4-11 [4]): efficacious
